Results taken from PubChem BioAssay AID1963438 (Molecular Pharmacology Branch, DTP, NCI, 2024).
Several values for one entry are separate records, joined by “and”; a condition that tells them apart may be missing. Equal values may be shown once.

Test system: NCI-H510 multicellular tumor spheroid growth, % test/control
Assay: Anticancer human tumor NCI-H510 cell line growth inhibition [Asc];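 also: spheroids exposed to agents for 7 days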;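 as to viability, T/C: 100% = DMSO vehicle control wells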
Conditions: for viability, T/C: stronger effect = lower value
Method in brief: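 Complex solid-tumor spheroids incorporating human endothelial and mesenchymal stem cells received single agents or combinations over half-log dilution ranges anchored to clinical Cmax.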

[1] = curve of first compound, second compound 0.03 µM
[2] = curve of first compound, second compound 0.0949 µM
[3] = curve of first compound, second compound 0.3 µM
[4] = curve of first compound, second compound 0.949 µM
[5] = curve of first compound, second compound 3 µM

SMILES: O=C(c1cc(Cc2n[nH]c(=O)c3ccccc23)ccc1F)N1CCN(C(=O)C2CC2)CC1 + CCN1C(C(=O)NC23CCC(C(=O)O)(CC2)CC3)C(c2cccc(Cl)c2F)C2(C(=O)Nc3cc(Cl)ccc32)C12CCCCC2
- IC50 [1]: 1330 nM
- IC50 [2]: 2020 nM
- IC50 [3]: 1360 nM
- IC50 [4]: 2620 nM
- IC50 [5]: 2550 nM
- viability, T/C (second compound 0.03 µM, first compound 0.0316 µM): 77.3%
- viability, T/C (second compound 0.03 µM, first compound 0.1 µM): 101%
- viability, T/C (second compound 0.03 µM, first compound 0.316 µM): 100%
- viability, T/C (second compound 0.03 µM, first compound 1 µM): 60.9%
- viability, T/C (second compound 0.03 µM, first compound 3.16 µM): 18.1%
- viability, T/C (second compound 0.03 µM, first compound 10 µM): 8.44%
- viability, T/C (second compound 0.0949 µM, first compound 0.0316 µM): 81.3%
- viability, T/C (second compound 0.0949 µM, first compound 0.1 µM): 106%
- viability, T/C (second compound 0.0949 µM, first compound 0.316 µM): 105%
- viability, T/C (second compound 0.0949 µM, first compound 1 µM): 77.5%
- viability, T/C (second compound 0.0949 µM, first compound 3.16 µM): 32.7%
- viability, T/C (second compound 0.0949 µM, first compound 10 µM): 19.7%
- viability, T/C (second compound 0.3 µM, first compound 0.0316 µM): 79.8%
- viability, T/C (second compound 0.3 µM, first compound 0.1 µM): 102%
- viability, T/C (second compound 0.3 µM, first compound 0.316 µM): 95.7%
- viability, T/C (second compound 0.3 µM, first compound 1 µM): 57%
- viability, T/C (second compound 0.3 µM, first compound 3.16 µM): 25.5%
- viability, T/C (second compound 0.3 µM, first compound 10 µM): 8.82%
- viability, T/C (second compound 0.949 µM, first compound 0.0316 µM): 109%
- viability, T/C (second compound 0.949 µM, first compound 0.1 µM): 99.8%
- viability, T/C (second compound 0.949 µM, first compound 0.316 µM): 97.5%
- viability, T/C (second compound 0.949 µM, first compound 1 µM): 86.7%
- viability, T/C (second compound 0.949 µM, first compound 3.16 µM): 42.5%
- viability, T/C (second compound 0.949 µM, first compound 10 µM): 5.78%
- viability, T/C (second compound 3 µM, first compound 0.0316 µM): 94.5%
- viability, T/C (second compound 3 µM, first compound 0.1 µM): 78.1%
- viability, T/C (second compound 3 µM, first compound 0.316 µM): 95.1%
- viability, T/C (second compound 3 µM, first compound 1 µM): 93.3%
- viability, T/C (second compound 3 µM, first compound 3.16 µM): 40.8%
- viability, T/C (second compound 3 µM, first compound 10 µM): 22.3%

SMILES: O=C(c1ccc(F)c(F)c1Nc1ccc(I)cc1F)N1CC(O)([C@@H]2CCCCN2)C1
- viability, T/C (compound 0.00316 µM): 80.5% and 85.3% and 98%
- viability, T/C (compound 0.01 µM): 119% and 91% and 90.4%
- viability, T/C (compound 0.0316 µM): 95.7% and 106% and 86.9%
- viability, T/C (compound 0.1 µM): 97.4% and 102% and 86.8%
- viability, T/C (compound 0.316 µM): 110% and 89% and 87.3%
- viability, T/C (compound 1 µM): 72.5% and 86% and 83.7%
- IC50 (curve of compound): > 1000 nM

SMILES: CNC(C)C(=O)NC1CN(S(=O)(=O)c2cccc(S(=O)(=O)N3CCC4CCC(C(=O)NC(c5ccccc5)c5ccccc5)N4C(=O)C(NC(=O)C(C)NC)C3)c2)CCC2CCC(C(=O)NC(c3ccccc3)c3ccccc3)N2C1=O (stereo unspecified)
- viability, T/C (compound 0.00316 µM): 103% and 100% and 104%
- viability, T/C (compound 0.01 µM): 106% [middle of 14 runs]
- viability, T/C (compound 0.0316 µM): 102% [middle of 14 runs]
- viability, T/C (compound 0.1 µM): 103% [middle of 14 runs]
- IC50 (compound alone, run of 10/24/2022): > 1000 nM
- IC50 (compound alone, run of 11/15/2022): > 1000 nM
- IC50 (curve of compound): > 1000 nM

SMILES: NC1CCC(NC2CC2c2ccccc2)CC1 (stereo unspecified)
- viability, T/C (compound 0.000316 µM): 67.7% and 77.1% and 95.6%
- viability, T/C (compound 0.001 µM): 69.7% and 75.9% and 98.6%
- viability, T/C (compound 0.00316 µM): 79.1% and 83% and 96.4%
- viability, T/C (compound 0.01 µM): 69.3% and 84.8% and 101%
- viability, T/C (compound 0.0316 µM): 89.1% and 83.1% and 91.1%
- viability, T/C (compound 0.1 µM): 65% and 77.7% and 93%
- IC50 (curve of compound): > 100 nM

SMILES: NC1CCC(NC2CC2c2ccccc2)CC1 (stereo unspecified) + CNC(C)C(=O)NC1CN(S(=O)(=O)c2cccc(S(=O)(=O)N3CCC4CCC(C(=O)NC(c5ccccc5)c5ccccc5)N4C(=O)C(NC(=O)C(C)NC)C3)c2)CCC2CCC(C(=O)NC(c3ccccc3)c3ccccc3)N2C1=O
- IC50 (curve of first compound, second compound 0.01 µM): > 100 nM
- IC50 (curve of first compound, second compound 0.0316 µM): > 100 nM
- IC50 (curve of first compound, second compound 0.1 µM): > 100 nM
- IC50 (curve of first compound, second compound 0.316 µM): > 100 nM
- IC50 (curve of first compound, second compound 1 µM): > 100 nM
- viability, T/C (second compound 0.01 µM, first compound 0.000316 µM): 85.6%
- viability, T/C (second compound 0.01 µM, first compound 0.001 µM): 105%
- viability, T/C (second compound 0.01 µM, first compound 0.00316 µM): 97.4%
- viability, T/C (second compound 0.01 µM, first compound 0.01 µM): 90%
- viability, T/C (second compound 0.01 µM, first compound 0.0316 µM): 105%
- viability, T/C (second compound 0.01 µM, first compound 0.1 µM): 94.3%
- viability, T/C (second compound 0.0316 µM, first compound 0.000316 µM): 98.7%
- viability, T/C (second compound 0.0316 µM, first compound 0.001 µM): 96.7%
- viability, T/C (second compound 0.0316 µM, first compound 0.00316 µM): 92.3%
- viability, T/C (second compound 0.0316 µM, first compound 0.01 µM): 91.6%
- viability, T/C (second compound 0.0316 µM, first compound 0.0316 µM): 96.9%
- viability, T/C (second compound 0.0316 µM, first compound 0.1 µM): 94.9%
- viability, T/C (second compound 0.1 µM, first compound 0.000316 µM): 107%
- viability, T/C (second compound 0.1 µM, first compound 0.001 µM): 97.4%
- viability, T/C (second compound 0.1 µM, first compound 0.00316 µM): 91.2%
- viability, T/C (second compound 0.1 µM, first compound 0.01 µM): 89.8%
- viability, T/C (second compound 0.1 µM, first compound 0.0316 µM): 96.9%
- viability, T/C (second compound 0.1 µM, first compound 0.1 µM): 97.7%
- viability, T/C (second compound 0.316 µM, first compound 0.000316 µM): 99%
- viability, T/C (second compound 0.316 µM, first compound 0.001 µM): 106%
- viability, T/C (second compound 0.316 µM, first compound 0.00316 µM): 91%
- viability, T/C (second compound 0.316 µM, first compound 0.01 µM): 99.9%
- viability, T/C (second compound 0.316 µM, first compound 0.0316 µM): 102%
- viability, T/C (second compound 0.316 µM, first compound 0.1 µM): 97.8%
- viability, T/C (second compound 1 µM, first compound 0.000316 µM): 114%
- viability, T/C (second compound 1 µM, first compound 0.001 µM): 106%
- viability, T/C (second compound 1 µM, first compound 0.00316 µM): 97.9%
- viability, T/C (second compound 1 µM, first compound 0.01 µM): 98.1%
- viability, T/C (second compound 1 µM, first compound 0.0316 µM): 94.3%
- viability, T/C (second compound 1 µM, first compound 0.1 µM): 101%

SMILES: Cc1nc(N2CCC3(CC2)COC(C)C3N)c(CO)nc1Sc1ccnc(N)c1Cl (stereo unspecified) + CCN1C(C(=O)NC23CCC(C(=O)O)(CC2)CC3)C(c2cccc(Cl)c2F)C2(C(=O)Nc3cc(Cl)ccc32)C12CCCCC2
- IC50 [1]: > 3000 nM
- IC50 [2]: > 3000 nM
- IC50 [3]: > 3000 nM
- IC50 [4]: > 3000 nM
- IC50 [5]: > 3000 nM
- viability, T/C (second compound 0.03 µM, first compound 0.00949 µM): 103%
- viability, T/C (second compound 0.03 µM, first compound 0.03 µM): 119%
- viability, T/C (second compound 0.03 µM, first compound 0.0949 µM): 119%
- viability, T/C (second compound 0.03 µM, first compound 0.3 µM): 119%
- viability, T/C (second compound 0.03 µM, first compound 0.949 µM): 114%
- viability, T/C (second compound 0.03 µM, first compound 3 µM): 95.9%
- viability, T/C (second compound 0.0949 µM, first compound 0.00949 µM): 110%
- viability, T/C (second compound 0.0949 µM, first compound 0.03 µM): 91.5%
- viability, T/C (second compound 0.0949 µM, first compound 0.0949 µM): 123%
- viability, T/C (second compound 0.0949 µM, first compound 0.3 µM): 102%
- viability, T/C (second compound 0.0949 µM, first compound 0.949 µM): 104%
- viability, T/C (second compound 0.0949 µM, first compound 3 µM): 84.3%
- viability, T/C (second compound 0.3 µM, first compound 0.00949 µM): 101%
- viability, T/C (second compound 0.3 µM, first compound 0.03 µM): 116%
- viability, T/C (second compound 0.3 µM, first compound 0.0949 µM): 104%
- viability, T/C (second compound 0.3 µM, first compound 0.3 µM): 101%
- viability, T/C (second compound 0.3 µM, first compound 0.949 µM): 110%
- viability, T/C (second compound 0.3 µM, first compound 3 µM): 90.6%
- viability, T/C (second compound 0.949 µM, first compound 0.00949 µM): 116%
- viability, T/C (second compound 0.949 µM, first compound 0.03 µM): 105%
- viability, T/C (second compound 0.949 µM, first compound 0.0949 µM): 98.5%
- viability, T/C (second compound 0.949 µM, first compound 0.3 µM): 96%
- viability, T/C (second compound 0.949 µM, first compound 0.949 µM): 91.9%
- viability, T/C (second compound 0.949 µM, first compound 3 µM): 102%
- viability, T/C (second compound 3 µM, first compound 0.00949 µM): 99.9%
- viability, T/C (second compound 3 µM, first compound 0.03 µM): 97.5%
- viability, T/C (second compound 3 µM, first compound 0.0949 µM): 102%
- viability, T/C (second compound 3 µM, first compound 0.3 µM): 120%
- viability, T/C (second compound 3 µM, first compound 0.949 µM): 88.2%
- viability, T/C (second compound 3 µM, first compound 3 µM): 115%
